Laboratory results published in ChEMBL document CHEMBL5696442, “Discovery of type II inhibitors of TGFβ-activated kinase 1 (TAK1) and mitogen-activated protein kinase kinase kinase kinase 2 (MAP4K2)” (J Med Chem, 2015).

Experiments:
[1] = biological target: Serine/threonine-protein kinase MARK2 (Homo sapiens) (UniProt Q7KZI7); test: Inhibition of MARK2 Lys2 labeling site harbouring DLKAENLLLDADMNIK in human Huh-7 cells at 1 uM by KiNativ Profiling analysis relative to control; format: cell-based
Sequence of Serine/threonine-protein kinase MARK2 (Homo sapiens) (Q7KZI7 whole entry): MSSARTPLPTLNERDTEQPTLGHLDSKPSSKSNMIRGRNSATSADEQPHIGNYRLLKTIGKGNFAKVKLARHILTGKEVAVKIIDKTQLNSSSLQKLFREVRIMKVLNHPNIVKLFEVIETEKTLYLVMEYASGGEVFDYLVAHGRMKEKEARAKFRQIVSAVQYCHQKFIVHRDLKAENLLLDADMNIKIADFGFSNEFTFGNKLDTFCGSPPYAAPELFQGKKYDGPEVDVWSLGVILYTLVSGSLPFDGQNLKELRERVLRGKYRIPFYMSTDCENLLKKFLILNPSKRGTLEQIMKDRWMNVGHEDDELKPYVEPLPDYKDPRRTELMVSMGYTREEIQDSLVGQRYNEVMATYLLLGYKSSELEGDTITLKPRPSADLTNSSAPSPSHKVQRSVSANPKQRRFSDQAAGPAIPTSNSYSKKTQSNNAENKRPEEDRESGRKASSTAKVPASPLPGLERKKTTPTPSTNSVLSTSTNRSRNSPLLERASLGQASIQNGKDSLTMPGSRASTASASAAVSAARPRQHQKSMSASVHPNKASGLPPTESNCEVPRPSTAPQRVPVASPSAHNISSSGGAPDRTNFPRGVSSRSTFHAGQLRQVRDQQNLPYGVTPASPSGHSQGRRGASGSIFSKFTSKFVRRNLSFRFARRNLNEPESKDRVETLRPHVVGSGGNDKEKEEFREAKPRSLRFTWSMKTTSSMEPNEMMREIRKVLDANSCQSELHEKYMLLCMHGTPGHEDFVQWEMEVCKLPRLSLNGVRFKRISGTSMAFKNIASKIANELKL

[2] = biological target: Mitogen-activated protein kinase kinase kinase 4 (Homo sapiens) (UniProt Q9Y6R4); test: Inhibition of MAP3K4 Lys2 labeling site in human Huh-7 cell lysate at 1 uM by KiNativ Profiling analysis relative to control; format: subcellular
Sequence of Mitogen-activated protein kinase kinase kinase 4 (Homo sapiens) (Q9Y6R4 whole entry): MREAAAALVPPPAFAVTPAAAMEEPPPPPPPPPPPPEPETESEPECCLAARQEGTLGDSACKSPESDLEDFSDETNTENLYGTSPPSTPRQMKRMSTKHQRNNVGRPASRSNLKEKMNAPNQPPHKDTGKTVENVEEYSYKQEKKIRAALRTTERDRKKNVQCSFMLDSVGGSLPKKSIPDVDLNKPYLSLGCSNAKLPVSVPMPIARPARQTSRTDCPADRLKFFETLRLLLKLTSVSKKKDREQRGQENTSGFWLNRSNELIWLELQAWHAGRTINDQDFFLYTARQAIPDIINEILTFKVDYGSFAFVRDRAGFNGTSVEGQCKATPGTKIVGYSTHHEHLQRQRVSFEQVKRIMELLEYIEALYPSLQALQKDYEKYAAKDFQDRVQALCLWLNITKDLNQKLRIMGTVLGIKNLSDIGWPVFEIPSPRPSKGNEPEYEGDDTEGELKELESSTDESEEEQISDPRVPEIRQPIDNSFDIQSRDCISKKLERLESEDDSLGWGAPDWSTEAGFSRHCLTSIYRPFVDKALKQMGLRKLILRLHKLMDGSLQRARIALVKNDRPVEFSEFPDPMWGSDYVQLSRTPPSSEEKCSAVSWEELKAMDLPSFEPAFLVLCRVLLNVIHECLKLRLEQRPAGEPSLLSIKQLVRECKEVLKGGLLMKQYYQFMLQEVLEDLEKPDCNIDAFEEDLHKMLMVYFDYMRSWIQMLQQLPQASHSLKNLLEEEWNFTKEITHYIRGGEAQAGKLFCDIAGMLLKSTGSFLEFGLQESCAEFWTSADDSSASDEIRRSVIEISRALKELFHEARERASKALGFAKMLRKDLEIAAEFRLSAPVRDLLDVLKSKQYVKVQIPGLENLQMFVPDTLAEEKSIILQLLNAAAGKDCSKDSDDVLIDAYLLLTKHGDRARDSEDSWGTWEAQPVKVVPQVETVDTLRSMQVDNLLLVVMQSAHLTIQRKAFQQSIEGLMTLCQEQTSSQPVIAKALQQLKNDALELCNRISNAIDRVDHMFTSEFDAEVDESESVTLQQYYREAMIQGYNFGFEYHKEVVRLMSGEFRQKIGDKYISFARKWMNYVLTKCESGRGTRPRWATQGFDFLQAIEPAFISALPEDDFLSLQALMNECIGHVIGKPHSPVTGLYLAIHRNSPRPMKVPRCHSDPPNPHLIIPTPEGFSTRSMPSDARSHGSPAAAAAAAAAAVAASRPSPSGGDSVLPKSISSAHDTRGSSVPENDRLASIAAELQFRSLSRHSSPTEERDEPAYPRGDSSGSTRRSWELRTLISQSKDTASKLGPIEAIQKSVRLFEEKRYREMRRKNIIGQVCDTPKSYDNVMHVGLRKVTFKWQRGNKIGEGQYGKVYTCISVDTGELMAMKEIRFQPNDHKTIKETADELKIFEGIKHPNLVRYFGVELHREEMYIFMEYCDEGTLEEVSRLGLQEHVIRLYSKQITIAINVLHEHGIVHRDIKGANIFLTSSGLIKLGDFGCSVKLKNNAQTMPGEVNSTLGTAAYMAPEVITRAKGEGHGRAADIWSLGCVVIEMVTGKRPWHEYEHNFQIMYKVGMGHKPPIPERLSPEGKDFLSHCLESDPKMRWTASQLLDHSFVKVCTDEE

[3] = biological target: RAF proto-oncogene serine/threonine-protein kinase (Homo sapiens, UniProt P04049); test: Inhibition of RAF1 Lys2 labeling site in human Huh-7 cell lysate at 1 uM by KiNativ Profiling analysis relative to control; format: subcellular
Sequence of RAF proto-oncogene serine/threonine-protein kinase (P04049 whole entry, the tested form may be a part): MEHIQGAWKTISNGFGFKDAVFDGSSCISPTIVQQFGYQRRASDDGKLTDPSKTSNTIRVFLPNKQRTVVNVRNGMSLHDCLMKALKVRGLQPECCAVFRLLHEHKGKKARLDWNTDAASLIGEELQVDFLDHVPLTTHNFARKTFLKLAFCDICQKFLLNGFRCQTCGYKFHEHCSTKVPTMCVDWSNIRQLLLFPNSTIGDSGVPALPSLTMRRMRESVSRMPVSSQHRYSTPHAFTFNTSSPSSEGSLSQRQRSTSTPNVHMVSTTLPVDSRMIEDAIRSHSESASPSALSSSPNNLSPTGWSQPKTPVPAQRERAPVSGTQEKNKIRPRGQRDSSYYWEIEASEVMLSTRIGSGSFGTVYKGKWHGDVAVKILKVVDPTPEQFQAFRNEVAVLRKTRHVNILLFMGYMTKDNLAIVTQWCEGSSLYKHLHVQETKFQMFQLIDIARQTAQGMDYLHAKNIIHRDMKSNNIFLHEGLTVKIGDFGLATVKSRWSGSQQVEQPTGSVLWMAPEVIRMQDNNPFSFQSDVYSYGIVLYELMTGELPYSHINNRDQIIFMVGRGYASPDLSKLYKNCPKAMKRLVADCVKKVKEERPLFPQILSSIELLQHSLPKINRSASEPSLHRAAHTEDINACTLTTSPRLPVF

[4] = test system: eIF-2-alpha kinase GCN2 (Homo sapiens), Q9P2K8 [S808G]; test: Inhibition of GCN2 kinase domain 2 S808G mutant (unknown origin) at 1 uM by Ambit Kinomescan binding assay relative to control
[5] = biological target: Mitogen-activated protein kinase kinase kinase kinase 4 (Homo sapiens, UniProt O95819); test: Inhibition of MAP4K4 (unknown origin) at 1 uM by Ambit Kinomescan binding assay relative to control
Sequence of Mitogen-activated protein kinase kinase kinase kinase 4 (O95819 2-1239 limits assumed): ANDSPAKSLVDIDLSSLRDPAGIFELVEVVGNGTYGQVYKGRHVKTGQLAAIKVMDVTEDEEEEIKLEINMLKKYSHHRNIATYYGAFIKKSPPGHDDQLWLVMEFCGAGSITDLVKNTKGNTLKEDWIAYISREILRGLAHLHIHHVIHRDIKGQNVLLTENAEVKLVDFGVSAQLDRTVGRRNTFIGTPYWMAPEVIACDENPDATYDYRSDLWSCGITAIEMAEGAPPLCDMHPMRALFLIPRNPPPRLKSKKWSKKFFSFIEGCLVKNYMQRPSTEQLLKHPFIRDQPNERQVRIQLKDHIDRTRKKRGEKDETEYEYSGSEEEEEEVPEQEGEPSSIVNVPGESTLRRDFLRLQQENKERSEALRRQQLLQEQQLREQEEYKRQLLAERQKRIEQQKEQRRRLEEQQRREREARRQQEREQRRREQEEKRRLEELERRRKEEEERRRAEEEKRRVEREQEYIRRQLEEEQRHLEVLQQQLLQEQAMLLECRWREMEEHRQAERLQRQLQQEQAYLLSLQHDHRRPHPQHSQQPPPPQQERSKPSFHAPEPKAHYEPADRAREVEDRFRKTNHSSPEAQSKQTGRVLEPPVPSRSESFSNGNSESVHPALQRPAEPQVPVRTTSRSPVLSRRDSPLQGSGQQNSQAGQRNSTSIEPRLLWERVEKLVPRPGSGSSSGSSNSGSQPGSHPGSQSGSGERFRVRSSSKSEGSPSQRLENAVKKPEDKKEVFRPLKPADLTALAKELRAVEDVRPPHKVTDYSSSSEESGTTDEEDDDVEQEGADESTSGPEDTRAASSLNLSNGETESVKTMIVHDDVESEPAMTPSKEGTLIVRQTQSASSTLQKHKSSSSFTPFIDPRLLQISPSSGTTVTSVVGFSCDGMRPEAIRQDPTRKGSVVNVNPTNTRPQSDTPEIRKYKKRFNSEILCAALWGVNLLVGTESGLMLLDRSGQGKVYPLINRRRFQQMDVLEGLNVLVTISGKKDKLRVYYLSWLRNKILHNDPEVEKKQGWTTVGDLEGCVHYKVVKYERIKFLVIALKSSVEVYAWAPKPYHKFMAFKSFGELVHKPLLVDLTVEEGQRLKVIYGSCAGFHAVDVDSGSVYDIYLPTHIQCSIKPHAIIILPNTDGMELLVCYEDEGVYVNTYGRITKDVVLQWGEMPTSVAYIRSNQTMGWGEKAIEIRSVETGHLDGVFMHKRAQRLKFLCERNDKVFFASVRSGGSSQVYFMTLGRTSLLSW

[6] = biological target: STE20-like serine/threonine-protein kinase (Homo sapiens) (UniProt Q9H2G2); test: Inhibition of SLK Lys1 labeling site in human A-375 cells at 5 uM by KiNativ Profiling analysis relative to control; format: cell-based
[7] = biological target: Serine/threonine-protein kinase SMG1 (Homo sapiens) (UniProt Q96Q15); test: Inhibition of SMG1 ATP labeling site harbouring DTVTIHSVGGTITILPTKTKPK in human A-375 cells at 0.05 uM by KiNativ Profiling analysis relative to control; format: cell-based
[8] = biological target: T1, Serine/threonine-protein kinase LATS1 (Homo sapiens) (UniProt O95835); test: Inhibition of LATS1 Lys2 labeling site in human A-375 cells at 5 uM by KiNativ Profiling analysis relative to control; format: cell-based
T1 sequence (whole entry): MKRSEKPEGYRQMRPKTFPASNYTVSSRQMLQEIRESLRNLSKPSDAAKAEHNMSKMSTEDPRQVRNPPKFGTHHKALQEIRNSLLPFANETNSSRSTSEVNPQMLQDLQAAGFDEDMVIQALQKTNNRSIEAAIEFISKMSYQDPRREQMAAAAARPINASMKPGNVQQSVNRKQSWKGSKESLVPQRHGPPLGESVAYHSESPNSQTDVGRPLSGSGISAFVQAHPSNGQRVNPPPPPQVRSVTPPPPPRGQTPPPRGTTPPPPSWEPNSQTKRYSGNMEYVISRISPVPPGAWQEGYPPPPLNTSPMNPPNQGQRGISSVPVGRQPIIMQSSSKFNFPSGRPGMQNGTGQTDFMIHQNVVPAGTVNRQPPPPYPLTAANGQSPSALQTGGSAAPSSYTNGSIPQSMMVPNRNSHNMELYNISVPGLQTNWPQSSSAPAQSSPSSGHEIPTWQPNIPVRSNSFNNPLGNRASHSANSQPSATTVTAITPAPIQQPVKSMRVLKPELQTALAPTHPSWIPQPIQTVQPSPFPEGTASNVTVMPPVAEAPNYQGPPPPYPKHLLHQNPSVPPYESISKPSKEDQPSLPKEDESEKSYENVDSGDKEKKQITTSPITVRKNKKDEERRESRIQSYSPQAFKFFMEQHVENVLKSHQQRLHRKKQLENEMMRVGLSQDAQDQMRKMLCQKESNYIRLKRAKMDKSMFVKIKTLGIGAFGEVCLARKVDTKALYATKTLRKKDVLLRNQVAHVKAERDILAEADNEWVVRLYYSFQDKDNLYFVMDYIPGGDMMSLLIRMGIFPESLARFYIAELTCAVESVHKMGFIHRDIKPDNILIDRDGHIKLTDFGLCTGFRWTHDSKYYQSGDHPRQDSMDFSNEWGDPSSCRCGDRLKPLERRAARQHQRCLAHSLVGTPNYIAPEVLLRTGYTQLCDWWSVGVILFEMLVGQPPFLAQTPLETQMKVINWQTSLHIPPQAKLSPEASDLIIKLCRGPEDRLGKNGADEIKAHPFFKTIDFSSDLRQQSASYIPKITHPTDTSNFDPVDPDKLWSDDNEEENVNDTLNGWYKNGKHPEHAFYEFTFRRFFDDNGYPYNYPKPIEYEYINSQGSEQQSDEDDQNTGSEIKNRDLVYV

[9] = biological target: T2, Mitogen-activated protein kinase kinase kinase 3 (Homo sapiens) (UniProt Q99759); test: Inhibition of MAP3K3 Lys2 labeling site in human A-375 cells at 0.5 uM by KiNativ Profiling analysis relative to control; format: cell-based
T2 sequence (whole entry): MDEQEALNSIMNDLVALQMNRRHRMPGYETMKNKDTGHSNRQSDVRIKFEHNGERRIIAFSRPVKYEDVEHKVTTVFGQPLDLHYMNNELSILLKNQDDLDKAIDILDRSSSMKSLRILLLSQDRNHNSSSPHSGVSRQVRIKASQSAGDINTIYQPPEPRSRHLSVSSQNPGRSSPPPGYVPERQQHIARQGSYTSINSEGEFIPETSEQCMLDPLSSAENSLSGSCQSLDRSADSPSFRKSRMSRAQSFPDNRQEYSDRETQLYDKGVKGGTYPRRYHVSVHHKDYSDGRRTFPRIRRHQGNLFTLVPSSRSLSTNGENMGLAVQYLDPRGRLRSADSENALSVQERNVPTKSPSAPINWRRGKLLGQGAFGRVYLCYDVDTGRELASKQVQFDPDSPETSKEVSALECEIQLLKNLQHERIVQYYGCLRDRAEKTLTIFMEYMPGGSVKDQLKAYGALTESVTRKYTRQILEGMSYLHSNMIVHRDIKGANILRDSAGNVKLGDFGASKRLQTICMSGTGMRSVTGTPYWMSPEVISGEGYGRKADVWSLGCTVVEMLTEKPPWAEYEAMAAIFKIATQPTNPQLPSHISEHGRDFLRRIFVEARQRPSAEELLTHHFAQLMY

[10] = test system: Tyrosine-protein kinase ABL1 (Homo sapiens), P00519 [T315I]; test: Inhibition of ABL1 T315I mutant (unknown origin) at 10 uM by Ambit Kinomescan binding assay relative to control; values are per cent of control
[11] = biological target: Cyclin-dependent kinase 5 (Homo sapiens) (UniProt Q00535); test: Inhibition of CDK5 Lys2 labeling site in human A-375 cells at 5 uM by KiNativ Profiling analysis relative to control; format: cell-based
Sequence of Cyclin-dependent kinase 5 (Homo sapiens) (Q00535 whole entry, looked up): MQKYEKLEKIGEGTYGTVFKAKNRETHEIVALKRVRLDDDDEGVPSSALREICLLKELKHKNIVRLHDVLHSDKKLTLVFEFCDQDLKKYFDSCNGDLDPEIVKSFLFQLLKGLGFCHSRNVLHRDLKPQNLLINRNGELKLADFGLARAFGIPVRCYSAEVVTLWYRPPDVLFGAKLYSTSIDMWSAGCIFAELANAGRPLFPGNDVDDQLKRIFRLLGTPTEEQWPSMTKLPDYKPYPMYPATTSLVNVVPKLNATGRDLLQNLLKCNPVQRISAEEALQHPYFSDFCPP

CNc1cc(Oc2cc(C(=O)Nc3cc(N4CCN(C)CC4)cc(C(F)(F)F)c3)ccc2C)ncn1 was tested. Which inhibition [1] did it give?
The inhibition was 19.4%.

And the inhibition [2]?
The inhibition was 0.5%.

What about the inhibition [3] of the same compound?
The inhibition was 23.2%.

What does the source list for CCN1CCN(Cc2ccc(NC(=O)c3ccc(C)c(/C=C/c4cnc5[nH]ccc5c4OC)c3)cc2C(F)(F)F)CC1?
inhibition [4]: 11%; inhibition [5]: 1.8%

Which results are given for CCN1CCN(Cc2ccc(NC(=O)c3ccc(C)c(Oc4ccnc5[nH]ccc45)c3)cc2C(F)(F)F)CC1?
inhibition [6]: 34.6%; inhibition [7]: 2.3%; inhibition [8]: -6.4%; inhibition [9]: 2.8%; percent of control [10]: 0%; inhibition [11]: -6.8%
